Source: EP0412158A1, “ONCOSTATIC DRUG” (priority 1987, dated 1988)
Where “and” joins values, the source holds several entries; their conditions need not be identical. Identical values can stand only once. Marks after values point to notes of the source that are not given here.

Key:
[1] = tested on: methyl cholanthrene A tumor; test: Antineoplastic activity against transplanted methyl cholanthrene A tumor, evaluation by size of tumor (Examples 1 to 6); assay type: in vivo, female BALB/C mice; settings: No. 3, ip×9; for Change in body weight: body weight 13 days after transplantation; for T/control: tumor weight
Procedure: By dissolving alkylammonium salt of polymolybdic acid [NH3C3H7(iso)]s [Mo7O24] • 3H2O (Compound A) and other compounds (Compounds B to D) severally in distilled water, aqueous solutions containing the compounds in a fixed concentration of 10 mg/ml were obtained. These aqueous solutions were administered to female BALB/C mice (five weeks old) to which methyl cholanthrene A tumor had been transplanted to test the compounds for antineoplastic activity. To be specific, methyl cholanthrene A was transplanted to the mice in a ratio of 1.0 x 10^5 cells per mouse and the aqueous solutions were continuously administered to the mice by intraperitoneal injection ([…]) for nine days. On elapse of 14 days following the start of the administration, the tumors in the mice were measured. For comparison, mice to which no antineoplastic .drug was administered and mice to which aminonitroso urea was administered were tested by following the procedure described above.

[2] = tested on: methyl cholanthrene A; test: Methyl cholanthrene A tumor, evaluation by extension of period of survival (Examples 7 to 11); assay type: in vivo, female BALB/C mice; settings: No. 2; for Average number of days of survival / Number of toxically killed mice/total number of mice / T/control: ip×9; for Change in body weight: ip×9, D1~D9; for T/control: days of survival
Procedure: The aforementioned compounds, A to D, were severally dissolved in distilled water to obtain aqueous solutions containing the compounds in a fixed concentration of 10 mg/ml. To the female BALB/C mice (five weeks old) to which methyl cholanthrene A had been transplanted in a ratio of 1.0 x 10^5 cells per mouse, […] to determine the mices' periods of survival. For comparison, mice to which no antineoplastic drug was administered and mice to which aminonitroso urea was administered were similarly tested.

[3] = tested on: MM-46 breast cancer; test: MM-46 breast cancer, evaluation by size of tumor (Examples 21 to 24); assay type: in vivo, female C3H/He mice; settings: for Average weight of tumor / Number of tumorless mice /total number of mice / T/control: 100 mg/kg; for Average weight of tumor / Number of tumorless mice /total number of mice: ip × 9; for T/control: ip×9, tumor weight
Procedure: A polymolybdate, K6[Mo7022(02)2]8H20 (Compound I), and the aforementioned other compounds (Compounds J to L) were severally dissolved in distilled water to obtain aqueous solutions containing the compounds in a fixed concentration of 10 mg/mi. To female C3H/He mice (five weeks old) to which MM-46 breast cancer had been transplanted, the aqueous solutions were administered to test the compounds for antineoplastic activity. To be more specific, the MM-46 breast cancer was transplanted to the mice at a ratio of 5.0 x 10^5 cells per mouse and the aqueous solutions were continuously administered (at a dose of 100 mg/kg of body weight) by intraperineal injection for nine days. On elapse of 14 days after the stop of the administration, the size of tumor in the mice was measured. For comparison, mice to which the aqueous solution was not administered and mice to which aminonitroso urea was administered were similarly tested.

[4] = tested on: MM-46 breast cancer; assay type: in vivo, female C3H/He mice; settings: 100 mg/kg, ip × 9
Procedure: The active compounds, I to L, mentioned above were severally dissolved in distilled water to obtain aqueous solutions containing the compounds in a fixed concentration of 10 mg/ml. To female C3H/He mice (five weeks old) to which the MM-46 breast cancer had been transplanted in a ratio of 1.0 x 10^5 cells per mouse, the aqueous solutions were continuously administered at a dose of 100 mg/kg of body weight by intraperitoneal injection for nine days to determine the mice's periods of survival. For comparison, mice to which no aqueous solution was administered and mice to which aminonitrosourea was administered were similarly tested.

[5] = tested on: human breast cancer (MX-1); test: Human breast cancer MX-1, SRC method (Examples 29 and 30); assay type: in vivo, female ICR/cd-1 mice; settings: for antineoplastic activity: result in words
[6] = 100 mg/kg ip(×5), individual mice, listed as Compound II
[7] = 200 mg/kg ip(×5), individual mice, listed as Compound II
[8] = 100 mg/kg ip(×5), individual mice
[9] = 30 mg/kg ip(×5), individual mice
[10] = 129 mg/kg po(×5), individual mice
[11] = 257 mg/kg po(×5), individual mice

## [NH3C3H7(iso)]4 (Mo13O40] 1/3 • [Mo12O40H2]2/3 [Compound B]
[1]; 25 mg/kg
  Average weight of tumor: 1753.1±132.4(9) mg
  Number of tumorless mice /total number of mice: 0/9
  Change in body weight: -0.36 g
  T/control: 0.681
[2]; 25 mg/kg
  Average number of days of survival: 29.3±1.9(9) days
  Number of toxically killed mice/total number of mice: 0/9
  Change in body weight: -0.36 g
  T/control: 130.4

## [NH3 (iso)]6 [Mo7O23(O2)] • 5H20 [Compound L]
[3]
  Average weight of tumor: 1085.6±133.2** ** mg
  Number of tumorless mice /total number of mice: 0/8
  T/control: 00.380
[4]
  Average number of days of survival: 32.1±3.9(8) days
  Average weight of tumor after 14 days: 1086 ± 132(8) mg
  Ratio of elongation of life (5): 94.5

## [NH3 (iso)]6 [Mo7O22(O2)2] • 5H20 [Compound J]
[3]
  Average weight of tumor: 385.1±152.3(10 ) mg
  Number of tumorless mice /total number of mice: 5/10
  T/control: 0.135
[4]
  Average number of days of survival: 40.6±4.1(6) days
  Average weight of tumor after 14 days: 385±152 (8) mg
  Ratio of elongation of life (5): 146.2
[5]; 100 mg/kg ip(×5)
  T/C: 63.53* %
[5]; 100 mg/kg ip(×5), group mean
  T7/To: 0.876±0.037
[5]; [6]
  T7/To: 0.913 and 0.792 and 0.840 and 0.962
  Tumor 7 days after transplantation (T7): 10.5 omu (2×) and 9.5 omu and 12.5 omu
[5]; 200 mg/kg ip(×5)
  T/C: 73.02* %
[5]; 200 mg/kg ip(×5), group mean
  T7/To: 1.007±0.087
[5]; [7]
  T7/To: 1.077 and 1.222 and 0.852 and 0.880
  Tumor 7 days after transplantation (T7): 14.0 omu and 11.0 omu (2×) and 11.5 omu
[5]
  antineoplastic activity: same degree of antineoplastic activity as that of HCFU

## K6 [Mo7O22(O2)2] • 8H2O [Compound I]
[3]
  Average weight of tumor: 1134.9±184.5(1 0) mg
  Number of tumorless mice /total number of mice: 0/10
  T/control: 0.397
[3]; 100 mg/kg.ip for nine days, judged by increase of body weight, result in words
  toxicity: very low toxicity
[4]
  Average number of days of survival: 33.1±2.9(8) days
  Average weight of tumor after 14 days: 1135 ±185(8) mg
  Ratio of elongation of life (5): 100.8
  ratio of elongation of life: 100.8%
[5]; 100 mg/kg ip(×5)
  T/C: 57.28 8* %
[5]; 100 mg/kg ip(×5), group mean
  T7/To: 0.790±0.077
  W7/Wo: 1.068±0.008
[5]; [8]
  Body weight 7 days after transplantation (W7): 21.0 g and 20.5 g and 21.4 g and 20.6 g
  T7/To: 0.875 and 0.941 and 0.760 and 0.586
  Tumor 7 days after transplantation (T7): 10.5 omu and 8.0 omu and 9.5 omu and 8.5 omu
  W7/Wo: 1.061 and 1.057 and 1.092 and 1.062
[5]
  antineoplastic activity: strong antineoplastic activity

## O.O.[NH4+].[NH4+].[NH4+].[NH4+].[NH4+].[NH4+].[O]=[Mo](=[O])([O-])[O][Mo](=[O])(=[O])[O][Mo](=[O])([O-])([O-])[O][Mo](=[O])(=[O])[O][Mo](=[O])([O-])([O-])[O][Mo](=[O])(=[O])[O][Mo](=[O])(=[O])[O-] [Compound D, [NH4]6 [Mo7O24]. 2H20]
[1]; 100 mg/kg
  Average weight of tumor: 1790.5±189.3(8) mg
  Number of tumorless mice /total number of mice: 0/8
  Change in body weight: +1.20 g
  T/control: 0.695
[2]; 100 mg/kg
  Average number of days of survival: 33.3±2.7(8) days
  Number of toxically killed mice/total number of mice: 0/8
  Change in body weight: +1.20 g
  T/control: 133.3

## O=c1[nH]cc(F)c(=O)[nH]1 [Compound 5-FU, 5-fluorouracil]
[5]; 30 mg/kg ip(×5)
  T/C: 56.48* %
[5]; 30 mg/kg ip(×5), group mean
  T7/To: 0.779±0.072
[5]; [9]
  T7/To: 0.839 and 0.576 and 0.917 and 0.786
  Tumor 7 days after transplantation (T7): 13.0 omu and 7.5 omu and 16.5 omu and 11.0 omu

## K6 [Mo7O23(O2)] • 8H2O [Compound K]
[3]
  Average weight of tumor: 1139.5±221.1(8 ) mg
  Number of tumorless mice /total number of mice: 0/8
  T/control: 0.399
[4]
  Average number of days of survival: 32.1±2.7(8) days
  Average weight of tumor after 14 days: 1140± 221(8) mg
  Ratio of elongation of life (5): 94.5

## CCCCCCNC(=O)n1cc(F)c(=O)[nH]c1=O [HCFU(Mifur ol)]
[5]; 129 mg/kg po(×5)
  T/C: 61.15* %
[5]; 129 mg/kg po(×5), group mean
  T7/To: 0.844±0.040
  W7/Wo: 1.104±0.037
[5]; [10]
  Body weight 7 days after transplantation (W7): 21.3 g and 22.7 g and 21.8 g and 23.7 g
  T7/To: 0.929 and 0.885 and 0.741 and 0.821
  Tumor 7 days after transplantation (T7): 13.0 omu and 11.5 omu (2×) and 10.5 omu
  W7/Wo: 1.087 and 1.207 and 1.028 and 1.097
[5]; 257 mg/kg po(×5)
  T/C: 66.82* %
[5]; 257 mg/kg po(×5), group mean
  T7/To: 0.922±0.042
  W7/Wo: 1.080±0.035
[5]; [11]
  Body weight 7 days after transplantation (W7): 21.7 g and 23.2 g and 18.2 g and 19.4 g
  T7/To: 0.896 and 1.037 and 0.833 and 0.923
  Tumor 7 days after transplantation (T7): 13.0 omu and 14.0 omu and 12.5 omu and 12.0 omu
  W7/Wo: 1.109 and 1.166 and 1.011 and 1.037

## [NH3C3H7(iso)]6 [Mo7O24H] mixture [Compound C]
[1]; 25 mg/kg
  Average weight of tumor: 1425.2±130.6(10) mg
  Number of tumorless mice /total number of mice: 0/10
  Change in body weight: -2.19 g
  T/control: 0.553
[2]; 25 mg/kg
  Average number of days of survival: 30.2±2.0(10) days
  Number of toxically killed mice/total number of mice: 0/10
  Change in body weight: -2.19 g
  T/control: 134.2
